Reference: PubChem BioAssay AID248 (DTP/NCI, 2004)
Several values for one entry are separate records, joined by “and”; a condition that tells them apart may be missing. Identical values can stand only once. Inconclusive results and toxic doses are left out. Cut-off read from the data, not from the text of the source: active = T/C of 150% or more; inactive = T/C below 125%. Square brackets hold non-standard residues; d marks the D form. Peptide text beside a SMILES is read from it. * marks the point of attachment. ξ: configuration not given here. Cbz = O=C(OCc1ccccc1)*; ξD = NC(CC(=O)O)C(=O)O; OBn = c1ccc(CO*)cc1; Bn = c1ccc(C*)cc1

Tested on: L1210 leukemia ip in BDF1 mice, survival T/C
Assay: NCI In Vivo Anticancer Drug Screen. Data for tumor model L1210 Leukemia (intraperitoneal) in B6D2F1 (BDF1) mice
Conditions: endpoint: mean survival time, higher = longer survival
Method in brief: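 Read-out is survival time, reported as the treated-group measurement over the vehicle-control measurement.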

[1] = dose: 100.0 mg/kg/injection, schedule: Q04DX003 (ip), vehicle: saline
[2] = dose: 200.0 mg/kg/injection, schedule: Q04DX003 (ip), vehicle: saline
[3] = dose: 400.0 mg/kg/injection, schedule: Q04DX003 (ip), vehicle: saline
[4] = dose: 100.0 mg/kg/injection, schedule: Q01DX001 (ip), vehicle: saline
[5] = dose: 200.0 mg/kg/injection, schedule: Q01DX001 (ip), vehicle: saline
[6] = dose: 400.0 mg/kg/injection, schedule: Q01DX001 (ip), vehicle: saline
[7] = dose: 100.0 mg/kg/injection, schedule: Q04DX003 (ip), vehicle: saline with Tween-80
[8] = dose: 200.0 mg/kg/injection, schedule: Q04DX003 (ip), vehicle: saline with Tween-80
[9] = dose: 400.0 mg/kg/injection, schedule: Q04DX003 (ip), vehicle: saline with Tween-80
[10] = dose: 100.0 mg/kg/injection, schedule: Q04DX003 (ip), vehicle: Klucel (hydroxypropylcellulose) (HPC)
[11] = dose: 200.0 mg/kg/injection, schedule: Q04DX003 (ip), vehicle: Klucel (hydroxypropylcellulose) (HPC)
[12] = dose: 400.0 mg/kg/injection, schedule: Q04DX003 (ip), vehicle: Klucel (hydroxypropylcellulose) (HPC)
[13] = dose: 100.0 mg/kg/injection, schedule: Q01DX009 (ip), vehicle: saline
[14] = dose: 200.0 mg/kg/injection, schedule: Q01DX009 (ip), vehicle: saline
[15] = dose: 100.0 mg/kg/injection, schedule: Q01DX009 (ip), vehicle: Klucel (hydroxypropylcellulose) (HPC)
[16] = dose: 200.0 mg/kg/injection, schedule: Q01DX009 (ip), vehicle: Klucel (hydroxypropylcellulose) (HPC)
[17] = dose: 50.0 mg/kg/injection, schedule: Q01DX009 (ip), vehicle: saline with Tween-80
[18] = dose: 100.0 mg/kg/injection, schedule: Q01DX009 (ip), vehicle: saline with Tween-80

Measured: T/C

Cc1cc(Cl)cc(C(=O)Cl)c1O
inactive: dose: 100.0 mg/kg/injection, schedule: Q04DX002 (ip), vehicle: saline with Tween-80 111 % of control | dose: 200.0 mg/kg/injection, schedule: Q04DX002 (ip), vehicle: saline with Tween-80 107 % of control | dose: 400.0 mg/kg/injection, schedule: Q04DX002 (ip), vehicle: saline with Tween-80 103 % of control

O=C(O)c1ccc(-c2c3ccc(=O)cc-3oc3cc(O)ccc23)c(C(=O)O)c1
inactive: [1] 97 % of control | [2] 105 % of control | [3] 97 % of control

NCC(=O)NC(CC(=O)O)C(=O)O (configuration not stated) (H-Gly-[ξD]-OH)
inactive: [4] 97 % of control | [5] 104 % of control | [6] 97 % of control

C(CC1CCCCC1)=C(CCC1CCCCC1)CCC1CCCCC1
inactive: [7] 103 % of control | [8] 105 % of control | [9] 100 % of control

CN=C(N)c1ccc(N=C(N)c2ccc(C(N)=Nc3ccc(C(N)=NC)cc3)c(Cl)c2)cc1
inactive: dose: 7.5 mg/kg/injection, schedule: Q01DX Z (oral), vehicle: saline 101 % of control | dose: 15.0 mg/kg/injection, schedule: Q01DX Z (oral), vehicle: saline 98 % of control | dose: 30.0 mg/kg/injection, schedule: Q01DX Z (oral), vehicle: saline 101 % of control | dose: 60.0 mg/kg/injection, schedule: Q01DX Z (oral), vehicle: saline 101 % of control

c1ccc(-c2noc(-c3ccccc3)n2)cc1
inactive: dose: 62.5 mg/kg/injection, schedule: Q04DX002 (ip), vehicle: Klucel (hydroxypropylcellulose) (HPC) 90 % of control | dose: 125.0 mg/kg/injection, schedule: Q04DX002 (ip), vehicle: Klucel (hydroxypropylcellulose) (HPC) 87 % of control | dose: 250.0 mg/kg/injection, schedule: Q04DX002 (ip), vehicle: Klucel (hydroxypropylcellulose) (HPC) 93 % of control

CC(C)C(NC(=O)C(CSCc1ccccc1)NC(=O)OCc1ccccc1)C(=O)OCc1ccccc1 (configuration not stated) (Cbz-Cys(Bn)-Val-OBn; configuration not given here)
inactive: [10] 98 % of control | [11] 93 % of control | [12] 96 % of control

Cc1cc(C(=O)C[n+]2ccccc2)c(CN2C(=O)c3ccccc3C2=O)c(=O)n1C
inactive: dose: 100.0 mg/kg/injection, schedule: Q01DX001 (ip), vehicle: water 102 % of control

O=C(O)c1cc([N+](=O)[O-])cs1
inactive: [4] 98 % of control | [5] 104 % of control

O=C(O)CNS(=O)(=O)CCN1C(=O)c2ccccc2C1=O
inactive: [10] 96 % of control | [11] 92 % of control | [12] 96 % of control

O=C(O)c1ccccc1C(=O)Nc1ccc([N+](=O)[O-])cc1
inactive: dose: 25.0 mg/kg/injection, schedule: Q04DX003 (ip), vehicle: saline with Tween-80 93 % of control | dose: 50.0 mg/kg/injection, schedule: Q04DX003 (ip), vehicle: saline with Tween-80 90 % of control | [7] 98 % of control

O=C(O)Cc1ccc(Cl)c(Cl)c1
inactive: dose: 50.0 mg/kg/injection, schedule: Q01DX009 (ip), vehicle: saline 94 % of control | [13] 105 % of control | [14] 108 % of control

CNC(=O)c1ccccc1N
inactive: [7] 100 % of control | [8] 95 % of control | [9] 98 % of control

O=[N+]([O-])c1ccc(O)c(N=Cc2ccc(C=Nc3cc([N+](=O)[O-])ccc3O)cc2)c1
inactive: [15] 95 % of control and 86 % of control | [16] 97 % of control | dose: 400.0 mg/kg/injection, schedule: Q01DX009 (ip), vehicle: Klucel (hydroxypropylcellulose) (HPC) 103 % of control and 90 % of control

CCOC(=O)C(OC(=O)c1ccccc1)C(OC(=O)c1ccccc1)C(=O)OCC (configuration not stated)
inactive: [4] 102 % of control | [5] 100 % of control | [6] 93 % of control

Nc1c(Br)cc2c(c1Br)C(=O)c1ccccc1-2
inactive: dose: 100.0 mg/kg/injection, schedule: Q01DX001 (ip), vehicle: carboxymethylcellulose (CMC) 98 % of control | dose: 200.0 mg/kg/injection, schedule: Q01DX001 (ip), vehicle: carboxymethylcellulose (CMC) 109 % of control | dose: 400.0 mg/kg/injection, schedule: Q01DX001 (ip), vehicle: carboxymethylcellulose (CMC) 102 % of control

C=CCCCCCCCCC(=O)N(CCOC)CCOC
inactive: dose: 25.0 mg/kg/injection, schedule: Q01DX009 (ip), vehicle: saline with Tween-80 96 % of control | [17] 100 % of control | [18] 100 % of control and 91 % of control

O=C(Nc1ccc(OP(=O)(O)O)cc1)c1ccc(C(=O)Nc2ccc(OP(=O)(O)O)cc2)cc1
inactive: dose: 2.5 mg/kg/injection, schedule: Q01DX Z (ip), vehicle: water 96 % of control | dose: 5.0 mg/kg/injection, schedule: Q01DX Z (ip), vehicle: water 104 % of control | dose: 7.5 mg/kg/injection, schedule: Q01DX Z (ip), vehicle: water 93 % of control | dose: 10.0 mg/kg/injection, schedule: Q01DX Z (ip), vehicle: water 93 % of control | dose: 18.7 mg/kg/injection, schedule: Q01DX Z (ip), vehicle: water 104 % of control

O=C(Nc1ccc([N+](=O)[O-])cc1O)c1ccccc1
inactive: [7] 92 % of control | [8] 92 % of control

C/C(=C\COC1CCCCO1)CCC1OC1(C)C (configuration not stated)
inactive: [4] 103 % of control | [13] 108 % of control | [5] 100 % of control | [14] 98 % of control | [6] 100 % of control | dose: 400.0 mg/kg/injection, schedule: Q01DX009 (ip), vehicle: saline 101 % of control

Nc1cc(N2CCCC2)nc(-c2ccccc2)n1
inactive: [17] 98 % of control | [18] 95 % of control

CCNC(C)(C)C(SS(=O)(=O)O)c1cccs1 (configuration not stated)
inactive: dose: 100.0 mg/kg/injection, schedule: Q04DX003 (ip), vehicle: water 109 % of control | dose: 200.0 mg/kg/injection, schedule: Q04DX003 (ip), vehicle: water 96 % of control | dose: 400.0 mg/kg/injection, schedule: Q04DX003 (ip), vehicle: water 94 % of control

Cc1cccc(C(N)=S)n1
inactive: [15] 97 % of control | [16] 93 % of control

COc1cc(OC)c(Cl)c(OC)c1
inactive: dose: 100.0 mg/kg/injection, schedule: Q01DX009 (ip), vehicle: other 120 % of control | [1] 101 % of control | dose: 200.0 mg/kg/injection, schedule: Q01DX009 (ip), vehicle: other 103 % of control | [2] 100 % of control | dose: 400.0 mg/kg/injection, schedule: Q01DX009 (ip), vehicle: other 108 % of control | [3] 101 % of control

CCCCOC(=S)Nc1ccc(S(=O)(=O)c2ccc(NC(=S)OCCCC)cc2)cc1
inactive: [4] 108 % of control | [5] 102 % of control | [6] 104 % of control

CCOP(=O)(CCN(C(C)C)C(C)C)OCC
inactive: dose: 50.0 mg/kg/injection, schedule: Q01DX009 (ip), vehicle: Klucel (hydroxypropylcellulose) (HPC) 100 % of control | [15] 100 % of control | [10] 88 % of control | [16] 93 % of control
